Test results: patent US10624892B2, “Agent against fungal infections” (priority 2015, dated 2020)

Assays:
[1] = test system: Aspergillus niger; experiment: Aspergillus pneumonia in immunodeficient mice, aerosol treatment, microbial contamination of the lungs; format: in vivo, white mongrel mice; conditions: for Number of colonies (in different dilutions), 10^−2: dilution 10^−2, Saburo medium
Method: The studies were conducted on white mongrel mice (females, 6-8 weeks) in Rappolovo (Leningrad region), the quarantine period was 2 weeks. To reproduce aspergillus pneumonia of the mouse, in order to create an immunodeficiency, a cyclophosphamide solution (150 mg/kg) was injected once intraperitoneally. Three days later, the mice were injected hydrocortisone (250 mg/kg), intraperitoneally, once. One day after the hydrocortisone administration the mice were infected with a suspension of Aspergillus niger (approximately 3×10^7 cell/ml) intranasally, under ether anesthesia. On the 5th day after infection, 5 animals from each group were taken to study microbial contamination of the lungs (euthanasia in rodents was performed with an overdose of ether). From the lung tissue, homogenates were prepared in which the titer of Aspergillus genus fungi was determined. Observation over the remaining mice was carried out within 14 days after infection for mortality accounting. The test solutions were injected in an aerosol chamber. In the course of the experiment, the following groups of animals were formed: • 1—spray control (K), 3 identical groups (K1, K2, K3). The animals infected with Aspergillus and receiving an aerosol of isotonic sodium chloride solution. • 2—The associate of 5-[3,5-dichloro-2-hydroxybenzylidene)amino]-4-hydroxy-1H-pyrimidin-2-one salt with 1,2,3,4,5-pentahydroxy-6-methylaminohexane, 3 identical groups (E1-3). The animals infected with Aspergillus and receiving an aerosol of 0.1% of the preparation under study. • 3. Aqueous solution of substance I-1 • 4. Aqueous solution of substance I-2 • 5. Aqueous solution of substance I-3 • 6. Aqueous solution of substance I-4 • 7. Aqueous solution of substance I-5 • 8. Aqueous solution of substance I-6 • 9. Aqueous solution of substance I-7. The animals were placed into aerosol chambers (12 l) for a period of 30 minutes, during which 500 ml of air passed through the lungs. As an aerosol generator, an ultrasonic nebulizer OMRON U1 (Japan) was used. To maintain a constant concentration of the aerosol of the preparation in the chamber, a vortex pneumatic generator in pulsed spraying mode was used to obtain a stable aerosol with a particle size of 3 m. The animals were placed into immobilization containers and exposed to the obtained aerosol for 30 minutes once a day for 3 days, starting from the first day after the infection. From the samples of homogenized lung tissues, a number of successive dilutions were prepared, followed by seeding on to Saburo medium.

[2] = test system: Candida albicans; experiment: Candidamycosis of mammals: intradermal Candida albicans ulceration in rabbits, topical treatment; format: in vivo; conditions: for Complete cure by day 7: scarring of the lesion by day 7, 0.1% oil (olive oil) solution applied twice a day for 7 days
Method: Rabbits were inoculated intradermally with a suspension of a 48-hour Candida albicans culture at a dose of 10,000 fungal cells in […] of a 0.9% sodium chloride solution. […] For the study, a 0.1% oil (olive oil) solution of the 5-[3,5-dichloro-2-hydroxybenzylidene)amino]-4-hydroxy-1H-pyrimidin-2-one salt associate with 1,2,3,4,5-pentahydroxy-6-methylaminohexane and substance I-3 were prepared. Sterile water was used as the control substance. The duration of treatment was 7 days, starting from the 1st day after ulceration. The preparations were applied with a cotton swab twice a day—in the morning and in the evening. The criterion for mycological cure was the absence of the yeast and mycelial forms of Candida, and the criterion for complete cure was the scarring of the lesion by day 7.

[3] = cited from earlier work
[4] = test system: Leveillula taurica; experiment: Treatment of powdery mildew on begonia tuberosa by spray; format: in vivo, Begonia tuberosa hybridum
Method: The study was carried out on begonia tuberosa (Begonia tuberosa hybridum), infected with powdery mildew. Powdery mildew affects many plants, including trees and shrubs. Powdery mildew affects chrysanthemums, begonias, and roses; it is manifested in appearance of a white, sometimes darkening spew on green parts of plants. The plant disease is transmitted by spores through the air. The test plants were infected with spores of the fungus (Leveillula taurica) and kept until a white spew appeared on the leaves. Three leaves on each plant were infected. After appearance of the spew, the plants of the control group (3 plants) were isolated from the 3 plants treated with a spray, which is an aqueous solution of substance I-3. The treatment was performed once in a day for 3 and 7 days. After completion of the treatment, the observation over the plants was continued for another 3 weeks. During the observation, an increase in the amount of spew representing the fungal mycelium was registered in the control plants and the number of affected leaves increased, on average, to 7-8, while the spew covered the stems of the plants as well.

[5] = lung homogenate, 5th day after infection, aerosol 30 minutes once a day for 3 days

| SMILES | Number of colonies (in different dilutions), 10^−2 [1, 5] [col] | Number of colonies (in different dilutions), 10^−4 ([1]; lung homogenate, 5th day after infection, dilution 10^−4, Saburo medium, aerosol 30 minutes once a day for 3 days) [col] | Complete cure by day 7 [2] | solubility in oil solutions ([3]; oil solutions) | solubility in water ([3]; water) [%] | overall antifungal effectiveness among tested agents ([1]; conclusion from Table 2) | Presence of mycelium of fungi in the smear, 5 day ([2]; 5 day, 0.1% oil (olive oil) solution applied twice a day) | overall effect of treatment ([2]; conclusion from Table 3) | increase or spread of the fungus to other parts of the plant ([4]; aqueous solution spray once in a day for 3 and 7 days, observation for another 3 weeks) | growth of the fungi when flushed from the leaf and plated on a nutrient medium ([4]; flush from treated leaf, nutrient medium) |
| --- | --- | --- | --- | --- | --- | --- | --- | --- | --- | --- |
| CNCC(O)C(O)C(O)C(O)CO.O=c1nc(O)c(N=Cc2cc(Cl)cc(Cl)c2O)c[nH]1 [associate of 5-[3,5-dichloro-2-hydroxybenzylidene)amino]-4-hydroxy-1H-pyrimidin-2-one salt with 1,2,3,4,5-pentahydroxy-6-methylaminohexane, reference compound] | 12 | 2 | Absent | up to 0.3% | ≤ 0.4 |  |  |  |  |  |
| Cc1[nH]c(=O)[nH]c(=O)c1N=Cc1cc(Cl)cc(Cl)c1O.[Na] [Substance I-3, 2,4-dioxo-5-(2-hydroxy-3,5-dichlorobenzylidene) amino-6-methyl-1,3-pyrimidine sodium salt] | 2 |  | Achieved |  |  | most effective antifungal agent | no growth | positive effect is achieved | no increase or spread of the fungus to other parts of the plant was recorded | no growth of the fungi was recorded |
| Cc1[nH]c(=O)[nH]c(=O)c1N=Cc1ccc([N+](=O)[O-])cc1.[Na] [Substance I-1, 2,4-dioxo-5-(4-nitrobenzylidene)amino-6-methyl-1,3-pyrimidine sodium salt] | 5 |  |  |  |  |  |  |  |  |  |
